As usually defined, the clearance is the volume of plasma or blood freed of the substance per unit of time. Lower therefore signals inefficient removal. The half-life is the time in which the quantity being followed falls by half.

The target in data set [1] is T1, human glucagon-like peptide 1 receptor (GLP-1R) (Homo sapiens, UniProt P43220).
T1 construct: expressed in transfected cells
Kind of data set: GLP-1 receptor efficacy assay (cAMP AlphaScreen, CHO cells). The class given is cell-based. The following applies: EC50[GLP-1R]/EC50[Glucagon-R], human receptors in CHO-K1. The source says: The cDNA encoding either the human glucagon receptor (Glucagon-R) (primary accession number P47871) or the human glucagon-like peptide 1 receptor (GLP-1R) (primary accession number P43220) were synthesized and cloned into a mammalian expression vector containing a Zeocin resistance marker.
The mammalian expression vectors encoding the Glucagon-R or the GLP-1-R were transfected into Chinese hamster ovary (CHO) cells by the Attractene method. Stably expressing clones were obtained by Zeocin selection (250 μg/mL) upon limited dilution of cells resistant to the selection pressure. Glucagon-R and GLP-1-R cell clones expressing were picked, propagated and tested in the Glucagon-R and GLP-1-R efficacy assays as described below. […]
CHO cells expressing the human Glucagon-R, or human GLP-1-R were seeded 24 hours prior to the assay at 5000 cells per well in 384-well microtiter plates in culture in 50 μl growth medium. […] After two hours of incubation at room temperature in the dark, the cAMP content was determined applying the AlphaScreen™ cAMP Functional Assay Kit from Perkin-Elmer according to manufacturer instructions. EC50 and relative efficacies compared to reference compounds (glucagon and GLP-1) were calculated applying computer aided curve fitting. The GLP-1/glucagon ratio is calculated as defined earlier.
(In general: Alpha assays give light when donor and acceptor beads are brought close together.)

Data set [2] can be described thus: Oral glucose tolerance test (OGTT) in mice. The data set is classed as in vivo. The following applies: male C57BL6/J mice, 30 nmol/kg subcutaneous, blood glucose AUC 0-120 min. As for the experimental part: Effects of the test compounds on glycemic control were determined by an oral glucose tolerance test (OGTT) in 7-8 weeks old male C57BL6/J mice (obtained from Charles River Laboratories, Germany). Animals were housed in groups in individually ventilated cages (Tecniplast green line) with a 12-hour light cycle. They had ad libitum excess to a standard rodent diet (Provimi Kliba 3438) and water. The animals were housed in the test facility for at least one week prior to the OGTT. All experimental protocols concerning the use of laboratory animals were reviewed by a federal Ethics Committee and approved by governmental authorities.
The compounds were first dissolved in 0.1% aqueous ammonia to a nominal concentration of 2 mg/ml, and then diluted to the desired dosing strength in sterile PBS containing 25 mM phosphate buffer, pH 7.4. Compounds were administered in the morning by subcutaneous injection at a dose of 30 nmol/kg and a volume of 5 ml/kg. Control animals received a vehicle injection only. The GLP-1 analogue liraglutide was tested for comparison purposes. Group size was 5 animals per group.
The OGTT was performed 24 h or 48 h after compound administration. Animals were fasted for 10 h before the OGTT but still had ad libitum excess to water. After overnight fasting, a baseline blood sample (0 min) was obtained by tail bleed and blood glucose was measured with a glucometer. […]

Data set [3] can be described thus: Pharmacokinetic parameters after intravenous administration to rats. The data set is classed as in vivo. The following applies: Han/Wistar, rat, plasma, male Wistar rats, 20 nmol/kg. As to the method:
Pharmacokinetic parameters of the test compounds were determined after intravenous administration to Han/Wistar rats. The acylated GLP-1 analogue semaglutide was also tested for comparison purposes.
Male Wistar rats were obtained from Charles River (Germany) weighing approximately 180 to 210 g at time of arrival at the test facility. Rats were caged in European standard rat cages type IV with light cycle of 12-hour dark and 12-hour light. During the study rats were housed in standard rat cages type III. Both diet Altromin 1324 (Altromin, Germany) and water was administered ad libitum during the whole experimental period. The animals were housed in the test facility for at least 4 days in order to assure proper acclimatization.
The compounds were first dissolved in 0.1% aqueous ammonia to a nominal concentration of 2 mg/ml, and then diluted to the desired dosing strength (10 μM) in sterile PBS containing 25 mM phosphate buffer, pH 7.4. Intravenous injections corresponding to 20 nmol/kg were given via a lateral tail vein.
Blood samples (200 μl) were collected from the periorbital plexus at time points 0.08, 0.25, 0.5, 1, 2, 4, 8, 24, 32 and 48 h post dosing into K3EDTA tubes and centrifuged for 5 minutes at 4° C. within 20 minutes of sampling. Plasma samples (>100 μl) were transferred to 96-well PCR plates, immediately frozen and kept at −20′C until analysed for plasma concentration for the respective GLP-1-glucagon compound using LC-MS/MS. Individual plasma concentration-time profiles were analysed by a non-compartmental approach using ToxKin™ version 3.2 (Unilog IT Services), and the resulting pharmacokinetic parameters were determined.

T1 sequence (P43220 24-463): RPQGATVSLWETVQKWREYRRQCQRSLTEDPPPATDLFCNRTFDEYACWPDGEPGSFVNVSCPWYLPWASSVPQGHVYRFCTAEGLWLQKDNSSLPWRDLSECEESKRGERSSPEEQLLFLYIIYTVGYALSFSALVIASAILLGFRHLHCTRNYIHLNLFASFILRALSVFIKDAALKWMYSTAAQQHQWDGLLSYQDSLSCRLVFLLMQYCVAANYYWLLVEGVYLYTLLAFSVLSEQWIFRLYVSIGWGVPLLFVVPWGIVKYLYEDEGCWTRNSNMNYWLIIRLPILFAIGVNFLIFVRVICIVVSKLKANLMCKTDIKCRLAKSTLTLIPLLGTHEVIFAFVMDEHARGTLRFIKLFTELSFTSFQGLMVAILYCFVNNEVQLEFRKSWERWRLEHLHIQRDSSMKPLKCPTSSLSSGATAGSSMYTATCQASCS

For the compound `CC[C@H](C)[C@H](NC(=O)[C@H](Cc1ccccc1)NC(=O)[C@H](CC(=O)O)NC(=O)[C@H](CCCCN)NC(=O)[C@H](C)NC(=O)[C@H](C)NC(=O)[C@H](CCCNC(=N)N)NC(=O)[C@H](CCC(=O)O)NC(=O)[C@H](CC(=O)O)NC(=O)[C@H](CC(C)C)NC(=O)[C@H](Cc1ccc(O)cc1)NC(=O)[C@H](CCCCN)NC(=O)[C@H](CO)NC(=O)[C@H](Cc1ccc(O)cc1)NC(=O)[C@H](CC(=O)O)NC(=O)[C@H](CO)NC(=O)[C@@H](NC(=O)[C@H](Cc1ccccc1)NC(=O)[C@@H](NC(=O)CNC(=O)[C@H](CCC(N)=O)NC(=O)C(C)(C)NC(=O)[C@@H](N)Cc1c[nH]cn1)[C@@H](C)O)[C@@H](C)O)C(=O)N[C@@H](CCC(=O)O)C(=O)N[C@@H](Cc1c[nH]c2ccccc12)C(=O)N[C@@H](CC(C)C)C(=O)N[C@@H](CCC(=O)O)C(=O)N[C@@H](CCCCNC(=O)CNC(=O)CNC(=O)[C@H](CO)NC(=O)CNC(=O)[C@H](CO)NC(=O)CNC(=O)CC[C@H](NC(=O)CCCCCCCCCCCCCCCCC(=O)O)C(=O)O)C(=O)N[C@@H](C)C(N)=O` [Compound 1], the “Ratio GLP-1/Glucagon” value in data set [1] is given as 0.13. Moreover, in data set [2] (OGTT 24 h after administration), the “OGTT AUC 30 nmol/kg 24 h” value is listed as 56 % CTL. For the same compound, in data set [2] (OGTT 48 h after administration), the “OGTT AUC 30 nmol/kg 48 h” value stood at 74 % CTL. In data set [3], this compound displayed a clearance of 5.4 mL/h/kg. Besides, the MRT in data set [3] (read-out: Mean Residence Time) was determined as 19.2 h. The half-life in data set [3] (read-out: Terminal half life (converted)) was 15.2 h.

The values are drawn from patent US11274136B2, “Acylated glucagon analogue” (Zealand Pharma A/S, priority 2015, dated 2022).
